Structures can show the parent of a compound that is named as a salt. Where two headings read alike, the source gives them in different places.
Biological target: T1, hNaV1.7 (Homo sapiens, UniProt Q15858)
T1 construct: expressed in transfected cells; host or cells: HEK293
Test: QPatch NaV1.7 assay (whole-cell patch clamp, QPatch16x)
Assay type: cell-based
Conditions: HEK293-hNaV1.7 cells
Procedure, shortened: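 Automated whole-cell recordings in hNaV1.7-expressing HEK293 cells, holding at either −90 mV (mostly closed channels) or the half-inactivation voltage. Compounds applied cumulatively at four concentrations for 120 s each; peak current on 20 ms depolarisation to 0 mV fitted by Hill equation to yield pIC50.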

[1] = holding voltage V1/2 SSI (half of channels inactivated), read-out: QP Nav1.7 SSI vhalf pIC50 (converted)
[2] = holding voltage −90 mV (most channels closed), read-out: QP Nav1.7 −90 mV pIC50 (converted)

T1 sequence (Q15858 whole entry): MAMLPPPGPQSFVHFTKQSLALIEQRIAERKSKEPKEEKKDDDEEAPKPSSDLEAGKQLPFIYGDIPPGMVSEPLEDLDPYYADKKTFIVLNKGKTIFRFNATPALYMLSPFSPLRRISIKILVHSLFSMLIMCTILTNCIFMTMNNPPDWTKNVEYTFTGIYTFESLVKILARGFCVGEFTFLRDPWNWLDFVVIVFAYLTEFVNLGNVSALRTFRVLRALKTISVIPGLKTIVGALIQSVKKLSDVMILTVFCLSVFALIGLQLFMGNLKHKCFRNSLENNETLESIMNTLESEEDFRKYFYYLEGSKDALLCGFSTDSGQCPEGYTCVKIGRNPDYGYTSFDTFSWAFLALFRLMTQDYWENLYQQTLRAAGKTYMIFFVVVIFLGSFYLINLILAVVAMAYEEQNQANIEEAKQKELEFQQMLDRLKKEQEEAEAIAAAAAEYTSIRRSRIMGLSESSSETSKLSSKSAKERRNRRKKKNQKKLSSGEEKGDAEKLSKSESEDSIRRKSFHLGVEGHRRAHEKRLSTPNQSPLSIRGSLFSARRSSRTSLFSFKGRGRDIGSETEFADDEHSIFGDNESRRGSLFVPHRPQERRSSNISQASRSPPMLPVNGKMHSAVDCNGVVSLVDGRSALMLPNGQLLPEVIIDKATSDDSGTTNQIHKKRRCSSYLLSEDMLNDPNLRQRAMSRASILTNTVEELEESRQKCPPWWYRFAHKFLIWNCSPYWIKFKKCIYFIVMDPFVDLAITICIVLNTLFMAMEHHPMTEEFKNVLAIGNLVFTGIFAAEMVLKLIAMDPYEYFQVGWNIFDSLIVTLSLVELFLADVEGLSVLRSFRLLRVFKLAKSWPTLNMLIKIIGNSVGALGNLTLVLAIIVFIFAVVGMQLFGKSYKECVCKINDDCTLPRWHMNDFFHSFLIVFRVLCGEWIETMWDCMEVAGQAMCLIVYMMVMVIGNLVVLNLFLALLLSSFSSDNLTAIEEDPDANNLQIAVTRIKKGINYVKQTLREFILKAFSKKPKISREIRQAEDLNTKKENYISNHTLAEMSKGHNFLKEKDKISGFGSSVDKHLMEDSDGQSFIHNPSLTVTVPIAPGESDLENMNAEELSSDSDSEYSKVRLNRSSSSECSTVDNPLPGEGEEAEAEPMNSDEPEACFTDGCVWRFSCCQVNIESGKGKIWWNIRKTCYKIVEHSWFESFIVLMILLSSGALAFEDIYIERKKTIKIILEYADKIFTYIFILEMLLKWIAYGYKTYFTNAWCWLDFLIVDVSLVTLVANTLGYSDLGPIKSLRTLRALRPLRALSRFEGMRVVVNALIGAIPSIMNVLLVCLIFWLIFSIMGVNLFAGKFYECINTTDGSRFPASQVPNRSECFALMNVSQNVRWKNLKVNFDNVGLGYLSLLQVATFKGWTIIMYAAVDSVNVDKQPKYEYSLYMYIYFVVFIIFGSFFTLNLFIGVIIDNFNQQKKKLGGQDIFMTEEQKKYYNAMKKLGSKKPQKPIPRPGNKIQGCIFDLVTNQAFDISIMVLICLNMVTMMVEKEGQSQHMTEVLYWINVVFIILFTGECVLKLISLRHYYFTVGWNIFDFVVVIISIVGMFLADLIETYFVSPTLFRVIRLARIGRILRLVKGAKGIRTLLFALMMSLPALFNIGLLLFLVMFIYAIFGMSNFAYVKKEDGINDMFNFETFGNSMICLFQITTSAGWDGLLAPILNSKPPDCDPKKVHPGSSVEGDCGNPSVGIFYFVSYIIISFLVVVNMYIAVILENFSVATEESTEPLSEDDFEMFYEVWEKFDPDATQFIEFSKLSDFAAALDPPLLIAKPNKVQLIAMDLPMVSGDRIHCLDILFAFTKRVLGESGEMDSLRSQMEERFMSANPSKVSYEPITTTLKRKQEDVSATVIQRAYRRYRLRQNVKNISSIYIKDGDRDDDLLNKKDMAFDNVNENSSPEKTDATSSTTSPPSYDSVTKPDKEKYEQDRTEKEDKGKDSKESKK

Row | Structure (SMILES) | IC50 [1] | IC50 [2]
1 | CN1CC[C@@]2(CC[C@H](c3cc(-c4cc(-c5cnn(C)c5)ccc4F)ccn3)N2)C1=O [Example 191, (2R,5S)-2-[4-[2-Fluoro-5-(1-methylpyrazol-4-yl)phenyl]-2-pyridyl]-7-methyl-1,7-diazaspiro[4.4]nonan-6-one hydrochloride] | 25.1 µM | 398 µM
2 | CN1CCC[C@]2(CC[C@H](c3cc(-c4ccc(F)cc4)ccn3)N2)C1=O [Example 74, (2R,5S)-2-[4-(4-Fluoro-phenyl)-pyridin-2-yl]-7-methyl-1,7-diaza-spiro[4.5]decan-6-one hydrochloride] | 7.94 µM | 63.1 µM
3 | CCOc1cc(-c2cc(C)nc([C@H]3CC[C@]4(CCN(C)C4=O)N3)c2)ccc1F [Example 124, (2R,5R)-2-[4-(3-Ethoxy-4-fluoro-phenyl)-6-methyl-2-pyridyl]-7-methyl-1,7-diazaspio[4.4]nonan-6-one hydrochloride] | 7.94 µM | 126 µM
4 | CC(C)c1ccc(F)c(-c2ccnc([C@H]3CC[C@@]4(CCN(C)C4=O)N3)c2)c1 [Example 159, (2R,5S)-2-[4-(2-Fluoro-5-isopropyl-phenyl)-2-pyridyl]-7-methyl-1,7-diazaspiro[4.4]nonan-6-one hydrochloride] | 7.94 µM | 31.6 µM
5 | Cc1cc(-c2ccc(C(F)(F)F)cc2)cc([C@H]2CC[C@]3(CCNC3=O)N2C)n1 [Example 227, (2R,5R)-1-Methyl-2-[6-methyl-4-[4-(trifluoromethyl)phenyl]-2-pyridyl]-1,7-diazaspiro[4.4]nonan-6-one hydrochloride] | 12.6 µM | 158 µM
6 | CN1[C@@H](c2cc(-c3ccc(C(F)(F)F)cc3)ccn2)CC[C@]12CCCNC2=O [Example 232, hydrochloride] | 1.26 µM | 7.94 µM
7 | CN1CC[C@@]2(CC[C@H](c3cc(-c4cn(C)c5ccccc45)ccn3)N2)C1=O [Example 157, (2R,5S)-7-Methyl-2-[4-(1-methyl-1H-indol-3-yl)-pyridin-2-yl]-1,7-diaza-spiro[4.4]nonan-6-one hydrochloride] | 25.1 µM | 79.4 µM
8 | CN1CCC[C@]2(CC[C@@H](c3cc(-c4ccc(F)cc4)ccn3)N2)C1=O [Example 73, (2S,5S)-2-[4-(4-Fluoro-phenyl)-pyridin-2-yl]-7-methyl-1,7-diaza-spiro[4.5]decan-6-one hydrochloride] | 20 µM | 200 µM
9 | CCOc1ccc(F)c(-c2ccnc([C@@H]3CC[C@]4(CCN(C)C4=O)N3)c2C)c1 [Example 213, (2S,5R)-2-[4-(5-Ethoxy-2-fluoro-phenyl)-3-methyl-2-pyridyl]-7-methyl-1,7-diazaspiro[4.4]nonan-6-one hydrochloride] | 6.31 µM | 63.1 µM
10 | CN1CC[C@@]2(CC[C@H](c3cc(-c4ccc(C(F)(F)F)cc4)c(F)cn3)N2)C1=O [Example 58, (2R,5S)-2-[5-Fluoro-4-[4-(trifluoromethyl)phenyl]-2-pyridyl]-7-methyl-1,7-diazaspiro[4.4]nonan-6-one hydrochloride] | 1.26 µM | 63.1 µM
11 | CN1CCC[C@@]2(CC[C@H](c3cc(-c4ccc(C(F)(F)F)cc4)ccn3)N2)C1=O [Example 67, (2R,5R)-7-Methyl-2-[4-(4-trifluoromethyl-phenyl)-pyridin-2-yl]-1,7-diaza-spiro[4.5]decan-6-one hydrochloride] | 3.98 µM | 31.6 µM
12 | CCOc1cc(-c2ccnc([C@@H]3CC[C@@]4(CCN(C)C4=O)N3)c2)c(F)cc1C [Example 150, (2S,5S)-2-[4-(5-Ethoxy-2-fluoro-4-methyl-phenyl)-2-pyridyl]-7-methyl-1,7-diazaspiro[4.4]nonan-6-one hydrochloride] | 12.6 µM | 126 µM
13 | CCOc1ccc(F)c(-c2cc(C(C)C)nc([C@H]3CC[C@@]4(CCN(C)C4=O)N3)c2)c1 [Example 237, (2R,5S)-2-[4-(5-Ethoxy-2-fluoro-phenyl)-6-isopropyl-2-pyridyl]-7-methyl-1,7-diazaspiro[4.4]nonan-6-one hydrochloride] | 0.316 µM | 2.51 µM
14 | CN1CC[C@@]2(CC[C@H](c3cc(-c4ccccc4OC(F)(F)F)ccn3)N2)C1=O [Example 3, (2R,5S)-7-Methyl-2-[4-[2-(trifluoromethoxy)-phenyl]-2-pyridyl]-1,7-diazaspiro-[4.4]nonan-6-one hydrochloride] | 7.94 µM | 63.1 µM
15 | CCOc1ccc(F)c(-c2ccnc([C@H]3CC[C@]4(CCN(C)C4=O)N3)c2C)c1 [Example 212, (2R,5R)-2-[4-(5-Ethoxy-2-fluoro-phenyl)-3-methyl-2-pyridyl]-7-methyl-1,7-diazaspiro[4.4]nonan-6-one hydrochloride] | 5.01 µM | 63.1 µM
16 | Cc1ccnn1-c1ccc(F)c(-c2ccnc([C@H]3CC[C@@]4(CCN(C)C4=O)N3)c2)c1 [Example 193, (2R,5S)-2-[4-[2-Fluoro-5-(5-methylpyrazol-1-yl)phenyl]-2-pyridyl]-7-methyl-1,7-diazaspiro[4.4]nonan-6-one hydrochloride] | 50.1 µM | 5010 µM
17 | Cl.[2H]C([2H])(C)Oc1ccc(F)c(-c2ccnc([C@H]3CC[C@@]4(CCN(C)C4=O)N3)c2)c1 [Example 254, (2R,5S)-2-[4-[5-(1,1-Dideuterioethoxy)-2-fluoro-phenyl]-2-pyridyl]-7-methyl-1,7-diazaspiro[4.4]nonan-6-one hydrochloride] | 6.31 µM | 50.1 µM
18 | O=C1NCC[C@@]12CC[C@@H](c1cc(-c3cccc(OC(F)(F)F)c3)ccn1)N2 [Example 119, (2S,5S)-2-[4-[3-(Trifluoromethoxy)phenyl]-2-pyridyl]-1,7-diazaspiro[4.4]nonan-6-one hydrochloride] | 3.98 µM | 31.6 µM
19 | Cc1cc(-c2cc(C(F)(F)F)ccc2C(N)=O)cc([C@@H]2CC[C@]3(CCN(C)C3=O)N2)n1 [Example 27, 2-[2-Methyl-6-[(2S,5R)-7-methyl-6-oxo-1,7-diazaspiro[4.4]nonan-2-yl]-4-pyridyl]-4-(trifluoromethyl)benzamide hydrochloride] | 39800 µM | 
20 | COc1cccc(-c2ccnc([C@H]3CC[C@@]4(CCN(C)C4=O)N3)c2)c1Cl [Example 80, (2R,5S)-2-[4-(2-Chloro-3-methoxy-phenyl)-2-pyridyl]-7-methyl-1,7-diazaspiro[4.4]nonan-6-one hydrochloride] | 200 µM | 316 µM
21 | COc1cc(C(F)(F)F)ccc1-c1cc(C)nc([C@@H]2CC[C@@]3(CCN(C)C3=O)N2)c1 [Example 122, (2S,5S)-2-[4-[2-Methoxy-4-(trifluoromethyl)phenyl]-6-methyl-2-pyridyl]-7-methyl-1,7-diazaspiro[4.4]nonan-6-one hydrochloride] | 3.16 µM | 7.94 µM
22 | CN1CC[C@]2(CC[C@@H](c3cc(-c4ccc(C(F)(F)F)cc4)c(F)cn3)N2)C1=O [Example 60, (2S,5R)-2-[5-Fluoro-4-[4-(trifluoromethyl)phenyl]-2-pyridyl]-7-methyl-1,7-diazaspiro[4.4]nonan-6-one hydrochloride] | 3.98 µM | 79.4 µM
23 | Cc1cc(-c2ccc(C(F)(F)F)cc2)cc([C@@H]2CC[C@@]3(CCN(C)C3=O)N2)n1 [Example 29, (2S,5S)-7-Methyl-2-[6-methyl-4-[4-(trifluoromethyl)phenyl]-2-pyridyl]-1,7-diazaspiro[4.4]nonan-6-one hydrochloride] | 20 µM | 126 µM

Reference: patent publication US9376436B2, “2-(pyridin-2yl)-1, 7-diaza-spiro [4.4] nonane-6-one compound as voltage-gated sodium channels modulators” (CONVERGENCE PHARMACEUTICALS LIMITED, priority 2011, dated 2016)
